From US20210236412A1, “COSMETIC COMPOSITION OF NON-AQUEOUS THIXOTROPIC NAIL VARNISH CONTAINING A NAIL-HARDENING AGENT, USE AND IMPLEMENTATION METHOD” (FIABILA, priority 2018, published 2021)

Tests used:
[1] = assay type: physicochemical
Experimental: (§1) Various cosmetic compositions in the form of nail varnish of the organic-solvent-based varnish type were prepared and applied to nails. The tests hereinafter were performed on these varnishes: • Gloss: 100 μm of varnish was applied to a Leneta-type panel. After drying, the gloss was measured at an angle of incidence of 60° using a Minolta 268 glossmeter. • Flexibility: An aluminum plate covered with a varnish of 300 μm wet is subjected to a slow stamping and the depth of the penetration is measured (ISO1520). • Varnish hardness: It was measured using a Persoz pendulum on a glass plate covered with a varnish with a thickness of 100 μm wet, after drying at room temperature, according to the ISO1522 standard. • Adhesion: A “cross hatch test” is carried out on a glass plate. A score of 0 corresponds to an absence of loss of adhesion. A score of 5 corresponds to a total loss of adhesion. • Solids content: Between 0.5 and 1 g of varnish is poured into a dish. […] The stability of this shade, and more specifically the appearance or not of any syneresis, is observed. • Odor: The odor of the varnish is compared to that of a varnish not containing any hardening agent. • Viscosity: The viscosity of the product is measured at 25° C. using a Brookfield viscometer. […]

[2] = Viscosity, Brookfield viscometer; assay type: physicochemical; conditions: concentrations of less than 1% by weight
Experimental: as §1

[3] = tested on: nails of the hand; assay: In vivo test of nail hardening on panels of 30 persons; set-up: species or system human; conditions: 0.05% by weight in the varnish composition, three weeks
Excerpt: The varnish was applied under normal conditions of use (namely one application every three days, after having removed the previous varnish). Comparative composition 5 contained 0.05% of hexane, comparative composition 6 contained 0.05% by weight of citral, comparative composition 9 contained 0.05% by weight of caproic acid and composition 7 according to the present invention contained 0.05% by weight of sorbic acid. […] The respective compositions and also the results of the physical tests and observed by the panelists are collated in table 2 hereinafter.

[4] = Sedimentation stability and color fastness of tinted varnish; assay type: physicochemical; conditions: 0.1% by weight in the varnish; one month at 45° C.

influence on the stability of the varnish composition [1] | maximum amount that can be incorporated into the varnish without causing yellowing [1] | influence on the viscosity of the varnish composition [2] | discoloration of the shade [4] | SMILES | subjects who found an overall improvement in the quality and the hardness of their nails [3]
does not have any influence | less than 1 % by weight | does not have any influence | – | C/C=C/C=C/C(=O)O [sorbic acid] | more than 83%
– | – | – | discolors the Pigment Red 34 | O=P(O)(O)O [Phosphoric acid] | –
